From US20190240236A1, “ORAL TESTOSTERONE UNDECANOATE THERAPY” (Lipocine Inc., priority 2016, published 2019)

Experiment: Clinic Study of Testosterone Therapy for hypogonadal males: serum T Cavg and Cmax after oral TU fixed dose regimens
Assay type: in vivo, human
Details: for Cavg > 300 ng/dL ≥75% patients / Cavg > 300 ng/dL ≥80% patients: with food (at least 10 g fat)
Protocol: Fixed Dose Dosing Regimen Examples Based on Study Described Below for Estimated or Actual Cavg (Administered with Food with at Least 10 g of Fat)
The dosage form from Example B of Composition 4 with dosing regimen (Regimen #9-16) of dosing category BID-equal dose with daily dose range 150-600 mg were used for a Clinic Study of Testosterone Therapy for hypogonadal males.
The clinical study was a randomized double-blind, placebo-controlled dose escalating study of the safety, efficacy, tolerability, and pharmacokinetics of testosterone therapy in hypogonadal males. This clinic study was a single and multiple, ascending-dose study that was designed to determine the optimal starting, titration (if appropriate), or single fixed dose for safety and efficacy targeted by the US FDA. The study also verified the time for testosterone levels to reach steady state and identified a suitable fixed dose dosing regimen that satisfies an unmet need for safety and efficacy for oral TT.
This study was carried out with conditions of a single-center, randomized, double-blind, placebo-controlled, ascending multiple-dose, and serial-group in adult hypogonadal male subjects. The objectives of this study were: • a) To assess the safety, efficacy, and tolerability of escalating single and multiple oral doses of TU dosage forms in hypogonadal males • b) To determine the pharmacokinetics (PK) of testosterone (T), DHT, TU, DHTU, and estradiol (E2) after single and multiple oral doses of TU dosage forms in hypogonadal males • C) To identify a fixed dose dosing regimen satisfying US FDA targets, without needing to titrate, for restoring serum T levels in hypogonadal males to the normal T range.
The dosing regimen for this clinical study ranged from 150 mg daily dose (75 mg BID dose) to 600 mg daily dose (300 mg BID dose). Observed pharmacokinetic parameters (T, DHT, TU, DHTU, and E2) after single and multiple oral doses of TU dosage forms in the patients were recorded in connection with each daily dose listed in the report.
The overall analyzed results of this clinical study were plotted according to % of patients for safety (Cmax<1,500 ng/dL) and efficacy (Cavg>300 ng/dL) with a variety of dosing regimens. Note that only doses that were multiples of 75 mg were tested in the clinical study, the results predicted for the other doses are estimated from these values.

[1] = Daily dose 410 mg, each BID dose 205 mg
[2] = Daily dose 420 mg, each BID dose 210 mg
[3] = Daily dose 430 mg, each BID dose 215 mg
[4] = Daily dose 438 mg, each BID dose 219 mg
[5] = Daily dose 450 mg, each BID dose 225 mg
[6] = Daily dose 460 mg, each BID dose 230 mg
[7] = Daily dose 474 mg, each BID dose 237 mg
[8] = Daily dose 480 mg, each BID dose 240 mg
[9] = Daily dose 490 mg, each BID dose 245 mg
[10] = Daily dose 500 mg, each BID dose 250 mg
[11] = Daily dose 518 mg, each BID dose 259 mg
[12] = Regimen 1, TID-equal dose, TU 75/75/75 mg
[13] = Regimen 2, TID-equal dose, TU 112/112/112 mg
[14] = Regimen 3, TID-equal dose, TU 125/125/125 mg
[15] = Regimen 4, TID-equal dose, TU 150/150/150 mg
[16] = Regimen 5, TID-equal dose, TU 188/188/188 mg
[17] = Regimen 6, TID-equal dose, TU 225/225/225 mg
[18] = Regimen 7, TID-equal dose, TU 237/237/237 mg
[19] = Regimen 8, TID-equal dose, TU 250/250/250 mg
[20] = Regimen 9, BID-equal dose (AM/PM), TU 75/75 mg
[21] = Regimen 10, BID-equal dose (AM/PM), TU 150/150 mg
[22] = Regimen 11, BID-equal dose (AM/PM), TU 215/215 mg
[23] = Regimen 12, BID-equal dose (AM/PM), TU 225/225 mg
[24] = Regimen 13, BID-equal dose (AM/PM), TU 237/237 mg
[25] = Regimen 14, BID-equal dose (AM/PM), TU 250/250 mg
[26] = Regimen 15, BID-equal dose (AM/PM), TU 265/265 mg
[27] = Regimen 16, BID-equal dose (AM/PM), TU 300/300 mg
[28] = Regimen 17, BID-different dose (AM/PM), TU 75/225 mg
[29] = Regimen 18, BID-different dose (AM/PM), TU 75/300 mg
[30] = Regimen 19, BID-different dose (AM/PM), TU 150/225 mg
[31] = Regimen 20, BID-different dose (AM/PM), TU 225/150 mg
[32] = Regimen 21, BID-different dose (AM/PM), TU 225/300 mg
[33] = Regimen 22, BID-different dose (AM/PM), TU 300/75 mg
[34] = Regimen 23, BID-different dose (AM/PM), TU 300/150 mg
[35] = Regimen 24, BID-different dose (AM/PM), TU 300/225 mg

CCCCCCCCCCC(=O)O[C@H]1CC[C@H]2[C@@H]3CCC4=CC(=O)CC[C@]4(C)[C@H]3CC[C@]12C [TU, testosterone undecanoate]
% with Cavg/day > 300 ng/dL [1]: 71.5% | % with Cmax/dose < 1,500 ng/dL [1]: 93.7% | % with Cavg/day > 300 ng/dL [2]: 74.9% | % with Cmax/dose < 1,500 ng/dL [2]: 92.8% | % with Cavg/day > 300 ng/dL [3]: 77.6% | % with Cmax/dose < 1,500 ng/dL [3]: 92.1% | % with Cavg/day > 300 ng/dL [4]: 80.0% | % with Cmax/dose < 1,500 ng/dL [4]: 91.2% | % with Cavg/day > 300 ng/dL [5]: 83.5% | % with Cmax/dose < 1,500 ng/dL [5]: 89.9% | % with Cavg/day > 300 ng/dL [6]: 85.6% | % with Cmax/dose < 1,500 ng/dL [6]: 88.9% | % with Cavg/day > 300 ng/dL [7]: 88.9% | % with Cmax/dose < 1,500 ng/dL [7]: 86.8% | % with Cavg/day > 300 ng/dL [8]: 90.0% | % with Cmax/dose < 1,500 ng/dL [8]: 86.1% | % with Cavg/day > 300 ng/dL [9]: 91.7% | % with Cmax/dose < 1,500 ng/dL [9]: 84.6% | % with Cavg/day > 300 ng/dL [10]: 93.0% | % with Cmax/dose < 1,500 ng/dL [10]: 83.2% | % with Cavg/day > 300 ng/dL [11]: 95.2% | % with Cmax/dose < 1,500 ng/dL [11]: 80.0% | Cavg > 300 ng/dL ≥75% patients [12]: No | Cavg > 300 ng/dL ≥80% patients [12]: No | Cavg > 300 ng/dL ≥75% patients [13]: No | Cavg > 300 ng/dL ≥80% patients [13]: No | Cavg > 300 ng/dL ≥75% patients [14]: No | Cavg > 300 ng/dL ≥80% patients [14]: No | Cavg > 300 ng/dL ≥75% patients [15]: Yes | Cavg > 300 ng/dL ≥80% patients [15]: Yes | Cavg > 300 ng/dL ≥75% patients [16]: Yes | Cavg > 300 ng/dL ≥80% patients [16]: Yes | Cavg > 300 ng/dL ≥75% patients [17]: Yes | Cavg > 300 ng/dL ≥80% patients [17]: Yes | Cavg > 300 ng/dL ≥75% patients [18]: Yes | Cavg > 300 ng/dL ≥80% patients [18]: Yes | Cavg > 300 ng/dL ≥75% patients [19]: Yes | Cavg > 300 ng/dL ≥80% patients [19]: Yes | Cavg > 300 ng/dL ≥75% patients [20]: No | Cavg > 300 ng/dL ≥80% patients [20]: No | Cavg > 300 ng/dL ≥75% patients [21]: No | Cavg > 300 ng/dL ≥80% patients [21]: No | Cavg > 300 ng/dL ≥75% patients [22]: Yes | Cavg > 300 ng/dL ≥80% patients [22]: No | Cavg > 300 ng/dL ≥75% patients [23]: Yes | Cavg > 300 ng/dL ≥80% patients [23]: Yes | Cavg > 300 ng/dL ≥75% patients [24]: Yes | Cavg > 300 ng/dL ≥80% patients [24]: Yes | Cavg > 300 ng/dL ≥75% patients [25]: Yes | Cavg > 300 ng/dL ≥80% patients [25]: Yes | Cavg > 300 ng/dL ≥75% patients [26]: Yes | Cavg > 300 ng/dL ≥80% patients [26]: Yes | Cavg > 300 ng/dL ≥75% patients [27]: Yes | Cavg > 300 ng/dL ≥80% patients [27]: Yes | Cavg > 300 ng/dL ≥75% patients [28]: No | Cavg > 300 ng/dL ≥80% patients [28]: No | Cavg > 300 ng/dL ≥75% patients [29]: No | Cavg > 300 ng/dL ≥80% patients [29]: No | Cavg > 300 ng/dL ≥75% patients [30]: No | Cavg > 300 ng/dL ≥80% patients [30]: No | Cavg > 300 ng/dL ≥75% patients [31]: Yes | Cavg > 300 ng/dL ≥80% patients [31]: No | Cavg > 300 ng/dL ≥75% patients [32]: Yes | Cavg > 300 ng/dL ≥80% patients [32]: Yes | Cavg > 300 ng/dL ≥75% patients [33]: No | Cavg > 300 ng/dL ≥80% patients [33]: No | Cavg > 300 ng/dL ≥75% patients [34]: Yes | Cavg > 300 ng/dL ≥80% patients [34]: Yes | Cavg > 300 ng/dL ≥75% patients [35]: Yes | Cavg > 300 ng/dL ≥80% patients [35]: Yes | US FDA T level targets for safety and efficacy (fixed dose regimen, 430 mg TU daily dose (215 mg BID-equal dose) to 480 mg TU daily dose (240 mg BID-equal dose), no titration): can satisfy US FDA T level targets for safety and efficacy without titration
